Results as given in patent US20260165936A1, “BIO-BASED SURFACTANT COMPOSITION FOR REDUCTION OF MULTISPECIES BIOFILM FORMATION IN ORAL CAVITY” (SKYLAB AG, priority 2023, published 2026).

Legend:
[1] = system: dental plaque (biofilm) grown from fresh human saliva; experiment: Inhibition of biofilm formation on rough glass rods (biofilm dry weight); assay type: cell-based; settings: for Average biofilm weight: biofilm grown 3 days on rough glass rods in human saliva, dry weight; for Biofilm inhibitory effect of the individual component alone compared to the control (in words): individual component without its partner, FIG. 2
Description: The aqueous solutions of sodium lauroyl sarcosinate, biosurfactant rhamnolipid and the mixture thereof at various concentrations were tested for inhibition of biofilm formation on the surface of rough glass rods. The test sample of the raw material contained sodium lauroyl sarcosinate at the level of 35%. The test sample of the raw material contained rhamnolipid at the level of 40%. Sterile water was used as a negative control, and the mouthwash Corsodyl, containing 0.2% chlorhexidine was used as a positive control. Dry biofilm mass was weighted to determine the amount of formed dental plaque. The dental plaque was grown for 3 days by immersion of rough glass rods into the fresh human saliva containing 0.1% saccharose. […] On Day 1 one treatment of the glass rods with the test component solutions, and on Days 2 and 3 two treatments of the glass rods with the test component solutions were made. At the end of Day 3 the biofilm was collected from the glass rods, and the plaque amount by dry weight (g) was determined. Lesser weight indicated higher efficacy against the dental plaque. Sterilized rods were fixed in the holders in the microbiological cabinet. Since that moment the rods and the holders were used as the integral units. On Day 1 the sterile glass rods were pre-treated for 2 minutes with the test component solutions taken in the amount of 5 mL. Then the glass rods were removed, washed in 5 mL of the sterile distilled water and immersed into 5 mL of saliva containing 0.1% saccharose. The tubes were placed into the rack and then into the incubator (t=37° C.) and on shaker (250 rpm) for about 18 hours. On Days 2 and 3 in the morning the rods were treated with the test component solutions, then placed into nutritive broth and returned into the incubator and on shaker. After 6 h incubation in the broth the rods were treated with the test component solution once again and transferred into the saliva with 0.1% glucose, and then returned into the incubator for 18 hours. On Day 4 the tubes with the rods were removed from the incubator and used for determination of the biofilm dry weight. For this purpose, the rods were dried and then weighted on analytical balance with the accuracy of 4 decimal places. The biofilm was removed after the rehydration, and the rods were weighted once again. The biofilm dry weight was determined from the equation: [formula]

dental plaque = settings: second-generation anti-plaque agent; cited from earlier work

Compound	Dose dependence of dental plaque weight (in words) ([1]; 0.2 and 2% aqueous solutions, 10-fold increase in concentration)	Average biofilm weight ([1]; aqueous solution 0.2%) [g]	Average biofilm weight ([1]; aqueous solution 2%) [g]	Biofilm inhibitory effect of the individual component alone compared to the control (in words) [1]	Removal of dental plaque (dental plaque)	Average biofilm weight ([1]; aqueous solution 0.01%) [g]
sodium lauroyl sarcosinate	absence of obvious dose-dependent effect	0.0022	0.0020	do not provide for any biofilm inhibitory effect compared to the control		
[H]/N=C(\N/C(=N/[H])NCCCCCCNC(=N)NC(=N)Nc1ccc(Cl)cc1)Nc1ccc(Cl)cc1 [chlorohexidine]					70-90%	
rhamnolipid [Biosurfactant rhamnolipid]				do not provide for any biofilm inhibitory effect compared to the control		0.0026
